Like-named read-outs stand apart in the source and are kept apart here.
Columns and labels:
[1] = Kamiya et al. 2002; read-out: cytotoxicity CC50; cited from earlier work
[2] = after MCC-478, phase I clinical trial, Chan et al. 2005; cited from earlier work
[3] = Evaluation of liver targeting property (active drug in liver and blood, HPLC-MS/MS); format: in vivo, Balb/C mice; details: intragastric, dose equimolar to fosfomycin 200 mg/kg, active drug (free phosphonic or phosphoric acid)
Source text: Instrument: Finnigan Co. USA, TSQ Quantum-type liquid chromatography-mass spectrometry (LC/MS/MS), consisting of Finnigan Surveyor LC pump. Surveyor AS automatic sampler, electrospray ionization source (ESI) and triple tandem mass spectrometer. The control software is X calibur 1.4, Lcquan 2.0 data processing system is used for mass spectrometry data analysis. The chromatography column is Discovery ODS column (250 mm×4.6 mm, 5 μm), C18 guard column (4 mm×3.0 mm), the mobile phase is methanol-water-formic acid (10-30:90-70:0.5, V/V/V), the flow rate is 0.7 ml/min; the sample amount is 20 μL; and the column temperature is room temperature.

[4] = system: liver damage in mice caused by D-aminogalactose; format: in vivo, Kunmin mice; details: serum, D-aminogalactose 750 mg/kg model, 0.2 mmol oral twice, 24 hours after second administration
Description: Kunmin mice (20 g) were grouped randomly (8/group). 0.2 mmol of a compound to be tested was orally administered; after 2 hours post-dosing, D-aminogalactose was intraperitoneally injected at a dose of 750 mg/kg to prepare a liver damage model, and the normal saline was subcutaneously injected as a normal control group. After modeling for 12 hours, 0.2 mmol of the compound to be tested was orally administrated again. After 24 hours from the second administration, blood samples were collected to take serum specimen so as to determine ALT, AST.

[5] = system: DHBV; assay: animal or person; format: in vivo, sheldrakes; details: serum DHBV DNA; for inhibition in vivo at 0.5 mg/kg / inhibition in vivo at 1 mg/kg: Duck hepatitis B virus, po, 336 h; for inhibition in vivo at 0.5 mg/kg: 0.5 mg/kg intragastric once a day for 14 days; for inhibition in vivo at 1 mg/kg: 1.0 mg/kg intragastric once a day for 14 days
Description: The sheldrakes infected by vertical transmission and being positive in DHBV DNA detection were grouped randomly, 5/group. Water and different doses of the compound to be tested were intragastrically administrated, respectively, once a day, for 14 days. Venous blood samples were collected pre-dosing, at day 14 of dosing and at day 7 after drug withdrawal, the serum DHBV DNA content was measured using external standard TaqMan real-time fluorescence PCR method, and the inhibition ratio was calculated, as compared to the solvent group.

[6] = system: liver damage in mice caused by CCl4; format: in vivo, Kunmin mice; details: serum, CCl4 model, 0.2 mmol oral twice, 24 hours after second administration
Description: Kunmin mice (20 g) were grouped randomly (8/group). 0.2 mmol of a compound to be tested was orally administered; after 1 hour post-dosing, a 0.1% peanut oil solution of CCl4 was subcutaneously injected (10 mL/kg), to prepare a liver damage model; the normal saline was injected as a normal control group. After modeling for 12 hours, 0.2 mmol of the compound to be tested was orally administrated again. After 24 hours from the second administration, blood samples were collected to take serum specimen so as to determine ALT, AST.

[7] = system: HBV; assay: microbe, parasite or virus in culture; format: cell-based; details: Hep G 2.2.15 cells, HBV DNA in supernate at day 10 post-dosing, read-out: IC50
Description: At day 10 post-dosing, 100 μl supernate was taken and the content of HBV DNA was measured by the method of Quantitative PCR to calculate IC50 value.

[8] = system: Hep G 2.2.15 cells; assay: in vitro; format: cell-based; details: MTT, day 3 post-dosing
Description: (§1) Hep G 2.2.15 cells were inoculated in a 96-well plate (with cell number being 5.5×10^4) to continually cultivate for 3 days, new culture solutions containing different concentrations of drugs were added, and 3 wells were provided in parallel; at day 3 post-dosing, MTT was added until 7.5 mg/ml, and continued to cultivate for 2 hours, the supernate was discarded, isopropanol containing 10% […] was added, 120 μl/well, and 0.4 μl/well was further added.

[9] = in vitro; format: cell-based; details: human; Hep G 2.2.15 cells, MTT, day 3 post-dosing
Description: as §1

[10] = 25 mg/kg intragastric once a day for 14 days
[11] = 10 mg/kg intragastric once a day for 14 days
[12] = read-out: Inhibition ratio (%) Day 14 of dosing
[13] = read-out: Inhibition ratio (%) day 7 after drug withdrawal
[14] = Hepatitis B virus, HepG2.2.15, 240 h

Compound: COc1ccc(Sc2nc(N)nc3c2ncn3CCOCP(=O)(O)OCC(F)(F)F)cc1 [Compound 602074]
- CC50 [1]: 548000 nM

Compound: COc1ccc(Sc2nc(N)nc3c2ncn3CCOCP(=O)(O)O)cc1 [Compound 602076]
- blood concentration relative to that of the monoester 602074 [2]: one tenth

Compound: CC(C)OC(=O)[C@H](C)N[P@@](=O)(CO[C@H](C)Cn1cnc2c(N)ncnc21)Oc1ccc2c(c1)OCO2 [Compound I21-a]
- Cliver/Cblood ([3]; 1 h post-dosing): 8.45
- Cliver/Cblood ([3]; 6 h post-dosing): 12.02
- ALT [4]: 379 U/L
- AST [4]: 169 U/L
- Inhibition ratio (%) Day 14 of dosing [5, 10]: 70.8%
- Inhibition ratio (%) day 7 after drug withdrawal [5, 10]: 25.0%
- ALT [6]: 353 U/L
- AST [6]: 191 U/L
- IC50 [7]: 150 nM

Compound: CC(C)OC(=O)[C@H](C)N[P@](=O)(CO[C@H](C)Cn1cnc2c(N)ncnc21)Oc1ccc2c(c1)OCO2 [Compound I21-b]
- Cliver/Cblood ([3]; 1 h post-dosing): 9.15
- Cliver/Cblood ([3]; 6 h post-dosing): 14.37
- ALT [4]: 514 U/L
- AST [4]: 268 U/L
- Inhibition ratio (%) Day 14 of dosing [5, 10]: 82.3%
- Inhibition ratio (%) day 7 after drug withdrawal [5, 10]: 39.2%
- ALT [6]: 251 U/L
- AST [6]: 152 U/L
- IC50 [7]: 12 nM

Compound: CC(C)OC(=O)C(C)NP(=O)(OCCOCn1cnc2c(=O)[nH]c(N)nc21)Oc1ccc2c(c1)OCO2 (stereo not shown) [Compound I27]
- Cliver/Cblood ([3]; 1 h post-dosing): 11.75
- Cliver/Cblood ([3]; 6 h post-dosing): 8.02
- ALT [4]: 713 U/L
- AST [4]: 522 U/L
- Inhibition ratio (%) Day 14 of dosing [5, 11]: 80.6%
- Inhibition ratio (%) day 7 after drug withdrawal [5, 11]: 10.5%
- ALT [6]: 663 U/L
- AST [6]: 940 U/L
- IC50 [7]: 35 nM
- CC50 [8]: > 200000 nM

Compound: CC(NP(=O)(OCCOCn1cnc2c(=O)[nH]c(N)nc21)Oc1ccc2c(c1)OCO2)C(=O)OC1CCCCC1 (stereo not shown) [Compound I28]
- CC50 [8]: > 200000 nM

Compound: C=C1[C@H](CO[P@@](=O)(N[C@@H](C)C(=O)OC(C)C)Oc2ccc3c(c2)OCO3)[C@@H](O)C[C@@H]1n1cnc2c(=O)[nH]c(N)nc21 [Compound I38-b]
- ALT [4]: 217 U/L
- AST [4]: 493 U/L
- inhibition in vivo at 0.5 mg/kg [5, 12]: 96.4%
- inhibition in vivo at 0.5 mg/kg [5, 13]: 63.4%
- ALT [6]: 162 U/L
- AST [6]: 387 U/L
- IC50 [7, 14]: 90 nM
- CC50 [9]: > 200000 nM

Compound: COC(=O)C(C)NP(=O)(OCCOCn1cnc2c(=O)[nH]c(N)nc21)Oc1ccc2c(c1)OCO2 (stereo not shown) [Compound I41]
- Inhibition ratio (%) Day 14 of dosing [5, 11]: 72.5%
- Inhibition ratio (%) day 7 after drug withdrawal [5, 11]: 15.7%
- CC50 [8]: > 200000 nM

Compound: CC(C)OC(=O)[C@H](C)N[P@](=O)(CO[C@H](C)Cn1cnc2c(N)ncnc21)Oc1ccccc1.O=C(O)/C=C/C(=O)O [GS-7340, 9-[(R)-2-[[(S)-[[(S)-1-(isopropoxycarbonyl)-ethyl]-amino]-phenoxylphosphonyl]-methoxyl]-propyl]-adenine fumarate, reference compound]
- ALT [4]: 1064 U/L
- AST [4]: 1320 U/L
- ALT [6]: 2483 U/L
- AST [6]: 2645 U/L
- IC50 [7]: 71 nM
- CC50 [8]: 94200 nM

Compound: C=C1[C@H](CO[P@@](=O)(N[C@@H](C)C(=O)OC(C)C)Oc2ccccc2)[C@@H](O)C[C@@H]1n1cnc2c(=O)[nH]c(N)nc21 [i-5, 2-amino-1,9-dihydro-9-[(1S,3R,4S)-4-hydroxyl-3-((S)—((S)-1-isopropoxycarbonylethylamino-phenoxy-phosphoryl)-oxymethyl)-2-methylenecyclopentyl]-6H-purin-6-one, reference compound]
- ALT [4]: 1512 U/L
- AST [4]: 1646 U/L
- inhibition in vivo at 1 mg/kg [5, 12]: 88.9%
- inhibition in vivo at 1 mg/kg [5, 13]: 15.7%
- ALT [6]: 551 U/L
- AST [6]: 641 U/L
- IC50 [7, 14]: 12 nM
- CC50 [9]: 193000 nM

Compound: (benzo[1,3]dioxolan-5-yl) [5-[2-amino-5-(2-methylpropyl)-thiazol-4-yl]-furan-2-yl]-phosphonate-(1-isopropoxycarbonylethylamino)-phosphonamide [Compound I43]
- ALT [4]: 256 U/L
- AST [4]: 517 U/L
- ALT [6]: 507 U/L
- AST [6]: 280 U/L
- CC50 [8]: > 200000 nM
